Results reported in ChEMBL document CHEMBL1201862, “PubChem BioAssay data set” (2004).
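Protocol summary: plate cells (96-well), add compound at 5 concentrations, incubate 48 h, interpolate endpoints linearly. GI50 = concentration required for 50% inhibition of growth.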 Active and inactive are the calls of the source. Rule as the data show it: active = GI50 up to about 1.1 µM and inactive = higher.

How the values were obtained:
Assay in all cases: NCI tumour cell line growth inhibition, 48 h
[1] = system: A549
[2] = system: EKVX
[3] = system: HL-60
[4] = system: IGROV-1
[5] = system: M14
[6] = system: Malme-3M
[7] = system: NCI-H23
[8] = system: NCI-H460
[9] = system: NCI-H522
[10] = system: OVCAR-4
[11] = system: SF-539
[12] = system: SK-MEL-5
[13] = system: SK-OV-3
[14] = system: SN12C
[15] = system: SR
[16] = system: SW-620
[17] = system: TK-10
[18] = system: COLO 205
[19] = system: RPMI-8226
[20] = system: NCI/ADR-RES

Row | Structure (SMILES) | GI50 [1] | GI50 [2] | GI50 [3] | GI50 [4] | GI50 [5] | GI50 [6] | GI50 [7] | GI50 [8] | GI50 [9] | GI50 [10] | GI50 [11] | GI50 [12] | GI50 [13] | GI50 [14] | GI50 [15] | GI50 [16] | GI50 [17] | GI50 [18] | GI50 [19] | GI50 [20]
1 | CC(C)NC(=O)OCc1nnn2c1CCC2 | > 100 µM (inactive) | > 100 µM (inactive) | > 100 µM (inactive) | > 100 µM (inactive) | > 100 µM (inactive) | > 100 µM (inactive) | > 100 µM (inactive) | > 100 µM (inactive) | > 100 µM (inactive) | > 100 µM (inactive) | > 100 µM (inactive) | > 100 µM (inactive) | > 100 µM (inactive) | > 100 µM (inactive) | > 100 µM (inactive) | > 100 µM (inactive) | > 100 µM (inactive) | – | – | –
2 | Cc1nc(N(CCO)CCO)c2sc(=S)n(-c3ccccc3)c2n1 | > 100 µM (inactive) | – | > 100 µM (inactive) | > 100 µM (inactive) | – | > 100 µM (inactive) | > 100 µM (inactive) | > 100 µM (inactive) | > 100 µM (inactive) | – | > 100 µM (inactive) | > 100 µM (inactive) | > 100 µM (inactive) | – | > 100 µM (inactive) | > 100 µM (inactive) | > 100 µM (inactive) | > 100 µM (inactive) | > 100 µM (inactive) | –
3 | CN(C)CCCn1c(-c2ccc(Br)cc2)cs/c1=N\c1ccccc1 | 17.5 µM (inactive) | 10.8 µM (inactive) | 1.4 µM (inactive) | – | 12.6 µM (inactive) | – | 10.7 µM (inactive) | 12.2 µM (inactive) | – | 16.1 µM (inactive) | 14 µM (inactive) | – | 18.3 µM (inactive) | 18.5 µM (inactive) | 14 µM (inactive) | – | 15.9 µM (inactive) | – | 12.6 µM (inactive) | 14.3 µM (inactive)
4 | CCOC(=O)c1csc(NC(=O)CCN2CCN(C)CC2)n1 | > 100 µM (inactive) | – | 75.5 µM (inactive) | – | > 100 µM (inactive) | – | > 100 µM (inactive) | > 100 µM (inactive) | – | > 100 µM (inactive) | > 100 µM (inactive) | > 100 µM (inactive) | > 100 µM (inactive) | – | 74.3 µM (inactive) | 43.2 µM (inactive) | > 100 µM (inactive) | > 100 µM (inactive) | 55.3 µM (inactive) | > 100 µM (inactive)
5 | Cc1c(Cc2ccccc2)n(COCCCO)c(=O)[nH]c1=O | > 100 µM (inactive) | > 100 µM (inactive) | – | > 100 µM (inactive) | > 100 µM (inactive) | > 100 µM (inactive) | > 100 µM (inactive) | > 100 µM (inactive) | > 100 µM (inactive) | > 100 µM (inactive) | > 100 µM (inactive) | > 100 µM (inactive) | > 100 µM (inactive) | > 100 µM (inactive) | – | > 100 µM (inactive) | > 100 µM (inactive) | > 100 µM (inactive) | > 100 µM (inactive) | > 100 µM (inactive)
6 | C=C(/C=C/C=C(/CCC=C(C)C)COC(C)=O)[C@@H]1CC[C@]2([C@H](CCCO)/C(=C(/C)C=O)CC[C@]2(C)O)[C@@H]1O | 3.27 µM (inactive) | 18.1 µM (inactive) | 0.912 µM (active) | 17.2 µM (inactive) | 11 µM (inactive) | 0.0429 µM (active) | 18.8 µM (inactive) | 0.414 µM (active) | 17.1 µM (inactive) | – | 14 µM (inactive) | – | 29.1 µM (inactive) | 15.8 µM (inactive) | – | 2.42 µM (inactive) | 14.2 µM (inactive) | 0.558 µM (active) | – | –
7 | C=C1CC(OC)(C(OC)C(=O)N[C@H]2OCO[C@H]3C2O[C@H](C[C@@H](COC)OC)C(C)(C)C3OC)O[C@H](C)[C@@H]1C (stereo partly specified) | 0.693 µM (active) | – | 0.412 µM (active) | 1.17 µM (inactive) | – | – | 1.18 µM (inactive) | 0.746 µM (active) | – | 0.733 µM (active) | 0.76 µM (active) | 0.622 µM (active) | 1.06 µM (active) | 0.746 µM (active) | – | 0.859 µM (active) | – | 0.805 µM (active) | 0.111 µM (active) | 2.78 µM (inactive)
8 | Nc1ccc2c(c1)C1=NNC(=O)CC1C2 (stereo unspecified) | > 100 µM (inactive) | > 100 µM (inactive) | > 100 µM (inactive) | > 100 µM (inactive) | – | > 100 µM (inactive) | > 100 µM (inactive) | > 100 µM (inactive) | > 100 µM (inactive) | 47.8 µM (inactive) | > 100 µM (inactive) | > 100 µM (inactive) | > 100 µM (inactive) | > 100 µM (inactive) | – | > 100 µM (inactive) | – | > 100 µM (inactive) | > 40.4 µM (inactive) | > 100 µM (inactive)
9 | O=C1C2c3[nH]c4ccccc4c3C3CCSCC3C2C(=O)N1c1ccccc1 (stereo unspecified) | > 100 µM (inactive) | > 100 µM (inactive) | > 100 µM (inactive) | > 100 µM (inactive) | > 100 µM (inactive) | > 100 µM (inactive) | > 100 µM (inactive) | > 100 µM (inactive) | > 100 µM (inactive) | > 100 µM (inactive) | 59.2 µM (inactive) | > 100 µM (inactive) | > 100 µM (inactive) | > 100 µM (inactive) | – | > 100 µM (inactive) | > 100 µM (inactive) | > 100 µM (inactive) | > 100 µM (inactive) | –
10 | CC(=O)O[C@H]1CC[C@@]2(C)[C@H](CC[C@@H]3[C@@H]2CC[C@]2(C)[C@@H](c4ccc(=O)oc4)C[C@H]4O[C@]342)C1 | 0.213 µM (active) | 0.646 µM (active) | 0.307 µM (active) | 1.08 µM (active) | – | 0.571 µM (active) | 0.327 µM (active) | 0.212 µM (active) | 0.327 µM (active) | 0.675 µM (active) | 0.348 µM (active) | 0.34 µM (active) | 1.83 µM (inactive) | 0.327 µM (active) | – | 0.665 µM (active) | – | 3.15 µM (inactive) | 0.664 µM (active) | 0.518 µM (active)
11 | CC(=O)NC1=C(C)C(=O)c2c(nc3n2CCC3OC(=O)c2ccccc2)C1=O (stereo unspecified) | 1.7 µM (inactive) | 1.63 µM (inactive) | 1.92 µM (inactive) | 2.08 µM (inactive) | 1.98 µM (inactive) | 1.64 µM (inactive) | 1.67 µM (inactive) | 2.37 µM (inactive) | 2.04 µM (inactive) | 1.52 µM (inactive) | 1.93 µM (inactive) | 1.75 µM (inactive) | 2.03 µM (inactive) | 1.79 µM (inactive) | 2.37 µM (inactive) | 1.79 µM (inactive) | 6.43 µM (inactive) | 4 µM (inactive) | 2.04 µM (inactive) | –
12 | O=C1CCCCCCCCCCOC(=O)CCCCCCCCCCO1 | > 100 µM (inactive) | > 100 µM (inactive) | 21.8 µM (inactive) | > 100 µM (inactive) | > 100 µM (inactive) | > 100 µM (inactive) | > 100 µM (inactive) | > 100 µM (inactive) | > 100 µM (inactive) | > 100 µM (inactive) | > 100 µM (inactive) | > 100 µM (inactive) | > 100 µM (inactive) | > 100 µM (inactive) | 44.7 µM (inactive) | > 100 µM (inactive) | > 100 µM (inactive) | > 100 µM (inactive) | – | –
13 | N#Cc1c(-c2ccccc2)c(CN2CCCCC2)c(=O)n2c1[nH]c1ccccc12 | 26.7 µM (inactive) | – | – | 19.5 µM (inactive) | 30.1 µM (inactive) | 62.2 µM (inactive) | 37.9 µM (inactive) | 25.9 µM (inactive) | 24.3 µM (inactive) | 46.3 µM (inactive) | 38.1 µM (inactive) | 5.05 µM (inactive) | 71 µM (inactive) | 25.1 µM (inactive) | – | 54.3 µM (inactive) | 28.4 µM (inactive) | 25.6 µM (inactive) | – | 43.2 µM (inactive)
14 | CC12CCC3C(CCC4CC(OC(=O)Cc5ccc(N(CCCl)CCCl)cc5)CCC43C)C1CCC(=O)N2 (stereo unspecified) | 15.5 µM (inactive) | 16.4 µM (inactive) | 4.84 µM (inactive) | 16.2 µM (inactive) | 17.7 µM (inactive) | 18.2 µM (inactive) | 13 µM (inactive) | 7.26 µM (inactive) | 14.7 µM (inactive) | 15.9 µM (inactive) | 15.1 µM (inactive) | 18.2 µM (inactive) | 18 µM (inactive) | 15.6 µM (inactive) | 3.67 µM (inactive) | 14 µM (inactive) | 20.6 µM (inactive) | 17.3 µM (inactive) | 15.2 µM (inactive) | –
15 | Cc1nc2ccccc2c(=O)n1CC(=O)O | > 100 µM (inactive) | > 100 µM (inactive) | > 100 µM (inactive) | > 100 µM (inactive) | – | > 100 µM (inactive) | > 100 µM (inactive) | > 100 µM (inactive) | > 100 µM (inactive) | > 100 µM (inactive) | > 100 µM (inactive) | > 100 µM (inactive) | > 100 µM (inactive) | > 100 µM (inactive) | – | > 100 µM (inactive) | – | > 100 µM (inactive) | > 100 µM (inactive) | > 100 µM (inactive)
16 | O=C(c1ccccc1)c1cc(Cl)ccc1NCn1nnc2ccccc21 | 46 µM (inactive) | > 100 µM (inactive) | 25.2 µM (inactive) | > 100 µM (inactive) | 88.7 µM (inactive) | – | > 100 µM (inactive) | 69.5 µM (inactive) | 47.8 µM (inactive) | 9.46 µM (inactive) | 37.8 µM (inactive) | – | 47.8 µM (inactive) | 76.4 µM (inactive) | 35.6 µM (inactive) | 48.2 µM (inactive) | 81.1 µM (inactive) | 64.6 µM (inactive) | 41.6 µM (inactive) | –
